Measured values reported in patent publication US8496928B2, “Method for preventing and treating cardiovascular diseases with BRCA1” (priority 2008, dated 2013).

Experiments:
p53 = experiment: Western blot for p53 and phospho-p53 in cultured cardiomyocytes; assay type: cell-based, rat; conditions: NRVMs
Experimental: GAPDH was used as loading control. Phospho-p53 antibodies were directed against serine 15 of p53 protein.
Cardiomyocytes were infected with 10MOI of a replication deficient adenoviral vector containing the CMV promoter and either human BRCA1 or a null vector (human Adenovirus Type5 dE1/E3, Vector Biolabs, USA). Following 48 hours incubation, cardiomyocytes were treated with 21 μM of doxorubicin or 50 μM of H2O2. The inhibitor of p53, pifithrin-α (10 μm, Sigma Aldrich, USA) was added 2 hrs prior to the addition of doxorubicin or hydrogen peroxide. After 24 hours, cardiomyocytes were either trypsinized and collected for flow cytometry or harvested for protein and RNA extraction.

[1] = system: BRCA1 and p53 interaction; experiment: Co-immunoprecipitation of BRCA1 and p53 in cardiomyocytes; assay type: cell-based, rat; conditions: agent alone
Experimental: BRCA1 physically interacts with p53 in order to regulate p53 activity in a context dependent manner. Proteins were extracted after treatment and equal amounts (100 μg) of lysates were resolved by SDS PAGE.
Experiments were performed to access the interaction of BRCA1 with p53 in cardiomyocytes. […] Additionally, doxorubicin treatment, in the presence of overexpressing BRCA1 strengthened this association (lane 4, FIG. 6).
For analysis of physical interaction between BRCA1 and p53, cardiomyocytes were maintained and treated in 6-cm culture-dishes. After adenoviral and/or stress treatments, cells were scraped and suspended in 100 μL of RIPA buffer. The total cell lysate was obtained after homogenization and centrifugation at 14,000 g for 30 minutes at 4° C. Protein concentration was determined by the Bradford assay. Aliquots of each fraction (100 μg protein for total cell lysate) were incubated with either 0.5 μg of anti-p53 mouse monoclonal antibody (Cell Signaling Technology, USA) or with 0.5 μg of anti-BRCA1 (Santa Cruz Biotechnology, USA) for 1 hour at 4° C. Addition of protein A-Sepharose (Santa Cruz Biotechnology) and incubation for 16 hours at 4° C. was followed by centrifugation and repetitive washing of the Sepharose beads. […]

Wild-type mice = experiment: Doxorubicin-induced cardiac dysfunction in mice, echocardiography; conditions: doxorubicin 10 mg/kg i.p.; echocardiography day 3 and day 7
Experimental: Left ventricular function was assessed by echocardiography measuring percent systolic ejection fraction 3 days (FIG. 3A) or 7 days (FIG. 3B) after administration of vehicle, Ad-null vector (40 μl of 10^10 PFU, i.v.), Ad-GFP (40 μl of 10^10 PFU, i.v.), doxorubicin (10 mg/kg, i.p.) or doxorubicin (10 mg/kg, i.p.) with Ad-hBRCA1 (40 μl of 10^10 PFU, i.v.). Left ventricular function was also assessed by measuring fractional shortening values 3 days (FIG. 3C) after administration of vehicle, Ad-null vector (40 μl of 10^10 PFU, i.v.), Ad-GFP (40 μl of 10^10 PFU, i.v.), doxorubicin (10 mg/kg, i.p.) or doxorubicin (10 mg/kg, i.p.) with Ad-hBRCA1 (40 μl of 10^10 PFU, i.v.). *P<0.01 vs corresponding PBS group. †P<0.01 vs corresponding doxorubicin group. # p<0.01 vs. PBS+ad-GFP, ## p<0.001 vs. Dox+ad-BRCA1. n=3 for PBS and GFP groups; n=7 for doxorubicin and doxorubicin-BRCA1 groups. […]
Double-blinded echocardiography was performed on the doxorubicin- and adenoviral vectors-treated mice 3 days and 7 days post-treatment. […] End-diastolic posterior LV wall thickness, LV end-diastolic (LVEDD) and end-systolic LV dimension (LVESD) were measured. During diastole, LV dimension and wall thickness were measured from the maximum chamber cavity; during systole, they were measured during maximum anterior motion of the posterior wall. […]

HUVECs = experiment: HUVEC apoptosis assays (Annexin V-FITC/PI flow cytometry, cleaved caspase-3, DNA fragmentation); assay type: cell-based, human; conditions: ad-null infected HUVECs, 2 μM doxorubicin 24 hours
Experimental: In FIG. 23A ad-null or ad-BRCA1 infected HUVECs were treated with TNFα (20 ng/ml) for 24 hours. Cells were harvested for Annexin V-FITC and Propidium Iodide staining followed by flow cytometry. Total apoptotic cells are shown as mean±SD (n=3 in triplicate, **p<0.01). In FIG. 23B, HUVECs were treated with either siBRCA1 (10 nM) or scrambled siRNA (10 nM) for 24 hours. BRCA1-silenced and control HUVECs were treated with TNFα (20 ng/ml), stained with Annexin V-FITC and Propidium Iodide, and analyzed by flow cytometry. The percentage of total apoptotic cells are presented as mean±SD (n=3 in triplicate, **p<0.01). […] Data was calculated as the percentage of total apoptotic cells and presented as mean±SD (n=3 in triplicate, **p<0.01).
FIG. 31 is a bar graph showing protection of HUVECs against doxorubicin-induced apoptosis by BRCA1 overexpression. […] Data was calculated as the percentage of total apoptotic cells and presented as mean±SD (n=3 in triplicate, *p<0.01 vs. Ad-null group, †p<0.01 vs. Ad-null+2 μM Dox group). […]
Human umbilical vein endothelial cells (HUVECs) were purchased from Cambrex and cultured in MCDB-131 complete medium (Cambrex Corporation). […] These concentrations were determined from pilot optimization studies. […]
Apoptotic and necrotic cell death were assessed in ad-BRCA1 and ad-null infected HUVECs by flow cytometry coupled with the BD Annexin V-FITC Apoptosis Detection Kit. […]

[2] = system: rat neonatal ventricular cardiomyocytes (NRVMs); experiment: Cardiomyocyte apoptosis, AnnexinV-FITC/PI flow cytometry and cleaved caspase-3 western blot; assay type: cell-based
Experimental: In FIG. 5A apoptosis in control, BRCA1-overexpressing, doxorubicin-treated and doxorubicin-treated-BRCA1-overexpressing neonatal rat ventricular cardiomyocytes (NRVCM) was assessed by Annexin V-FITC and propidium iodide staining coupled with flow cytometry. Quadrants S1, S2, S3 and S4 respectively represent necrotic, late apoptotic, viable live and early apoptotic NRVCM. FIG. 5B is a representative western blot of cleaved caspase-3 and α-actin proteins in NRVCM infected with either 10 MOI Ad-hBRCA1 or Ad-null vector for 48 hours before being exposed to 2 μM doxorubicin for 24 hours. Data are expressed as mean±SD. n=3. *P<0.05 vs untreated control group. †P<0.01 vs doxorubicin group.
The effect of pifithrin-α on doxorubicin-induced cardiomyocyte apoptosis, with or without overexpression of BRCA1 was examined. […]
BRCA-1 induced gain of function and protection against genotoxic and oxidative stress-induced apoptosis was also examined in vitro. […] Cardiomyocytes were incubated with the virus (human BRCA1 or GFP) for 48 hours after which expression of human BRCA1 or GFP were determined. Expression of BRCA1 was analyzed by real-time PCR and western blotting (see FIGS. 4A and 4B) and expression of GFP was analyzed by live cell video microscopy. […] Based on this observation, 10 MOI was determined to be the best of the three tested concentrations of the adenoviral construct. […]

Structure (SMILES)	p53 level (p53; agent on its own)	serine-15 phosphorylation of p53 (p53; doxorubicin alone)	BRCA1 and p53 association [1]	cardiac function (percent systolic ejection fraction, fractional shortening) (Wild-type mice)	apoptosis (HUVECs)	number of apoptotic cardiomyocytes ([2]; BRCA1-overexpressing cardiomyocytes treated with doxorubicin and PFT-α)	number of apoptotic cells ([2]; cardiomyocytes treated with doxorubicin, PFT-α 10 μm added 2 hrs prior, vs doxorubicin only)
COc1cccc2c1C(=O)c1c(O)c3c(c(O)c1C2=O)C[C@@](O)(C(=O)CO)C[C@@H]3O[C@H]1C[C@H](N)[C@H](O)[C@H](C)O1 [doxorubicin]	upregulated p53	activated	decline	impairment in cardiac function	prevalent		
Cc1ccc(C(=O)Cn2c3c(sc2=N)CCCC3)cc1 [PFT-α, pifithrin-α]						no further reduction	significant reductions
